Test results from paper PMC11995724, “Antibiotic target discovery by integrated phenotypic and activity-based profiling of electrophilic fragments” (Cell chemical biology, 2025).

assay: in vitro; conditions: human, hek293t cells

Compound	viability at 48 h, 25 µM
C=CC(=O)NCc1ncccc1-n1cccn1 [2-N19, N-{[3-(1H-pyrazol-1-yl)pyridin-2-yl]methyl}prop-2-enamide]	70.3%
C=CC(=O)N1CCC(C(=O)N2CCCCCC2c2ccco2)CC1 (stereo not shown) [2-N20, 1-{4-[2-(furan-2-yl)azepane-1-carbonyl]piperidin-1-yl}prop-2-en-1-one]	80.3%
C=CC(=O)N1CSCC1C(=O)N1CCOCC1 (stereo not shown) [2-N21, 1-[4-(morpholine-4-carbonyl)-1,3-thiazolidin-3-yl]prop-2-en-1-one]	74.9%
C=CC(=O)N(C)CC(=O)N1CCC2(CC1)CC2c1nnc(C(C)C)o1 (stereo not shown) [2-N22, N-methyl-N-(2-oxo-2-{1-[5-(propan-2-yl)-1,3,4-oxadiazol-2-yl]-6-azaspiro[2.5]octan-6-yl}ethyl)prop-2-enamide]	84.6%
C=CC(=O)NCCc1ccccc1OC [2-O03, N-[2-(2-methoxyphenyl)ethyl]prop-2-enamide]	105%
C=CC(=O)N1CCC(c2nc(C3CCC3)no2)CC1 [2-O04, 1-[4-(3-cyclobutyl-1,2,4-oxadiazol-5-yl)piperidin-1-yl]prop-2-en-1-one]	84.1%
C=CC(=O)N(Cc1ccc2cnn(C)c2c1)CC(C)(C)C [2-O05, N-(2,2-dimethylpropyl)-N-[(1-methyl-1H-indazol-6-yl)methyl]prop-2-enamide]	102%
C=CC(=O)NCCNC(=O)C1CC12CCSCC2 (stereo not shown) [2-O06, N-[2-({6-thiaspiro[2.5]octan-1-yl}formamido)ethyl]prop-2-enamide]	88.3%
C=CC(=O)Nc1ccnn1C(C)C [2-O07, N-[1-(propan-2-yl)-1H-pyrazol-5-yl]prop-2-enamide]	101%
C=CC(=O)NCCC(=O)NC1CCCCC12OCCO2 (stereo not shown) [2-O08, N-[2-({1,4-dioxaspiro[4.5]decan-6-yl}carbamoyl)ethyl]prop-2-enamide]	106%
C=CC(=O)N(CC)Cc1cn(C)nn1 [2-O09, N-ethyl-N-[(1-methyl-1H-1,2,3-triazol-4-yl)methyl]prop-2-enamide]	105%
C=CC(=O)N1CCC(Cc2ccccc2)CC1 [2-O10, 1-(4-benzylpiperidin-1-yl)prop-2-en-1-one]	73%
C=CC(=O)NCc1ccccc1CN1C(=O)NC2(CCCCC2)C1=O [2-O11, N-{[2-({2,4-dioxo-1,3-diazaspiro[4.5]decan-3-yl}methyl)phenyl]methyl}prop-2-enamide]	71%
C=CC(=O)Nc1cccc(C(F)(F)CF)c1 [2-O12, N-[3-(1,1,2-trifluoroethyl)phenyl]prop-2-enamide]	98.8%
C=CC(=O)NCC1CCC2(CCCOC2)O1 (stereo not shown) [2-O13, N-({1,7-dioxaspiro[4.5]decan-2-yl}methyl)prop-2-enamide]	168%
C=CC(=O)Nc1cnc(S(C)(=O)=O)c(C)c1 [2-O14, N-(6-methanesulfonyl-5-methylpyridin-3-yl)prop-2-enamide]	99.6%
C=CC(=O)N(C)Cc1conc1CC [2-O15, N-[(3-ethyl-1,2-oxazol-4-yl)methyl]-N-methylprop-2-enamide]	187%
C=CC(=O)N1CCOCC1c1cc(F)cc(F)c1 (stereo not shown) [2-O16, 1-[3-(3,5-difluorophenyl)morpholin-4-yl]prop-2-en-1-one]	81.8%
C=CC(=O)NCCc1ccnn1C [2-O17, N-[2-(1-methyl-1H-pyrazol-5-yl)ethyl]prop-2-enamide]	178%
C=CC(=O)N(C)c1ccccc1C(=O)NC [2-O18, N-methyl-2-(N-methylprop-2-enamido)benzamide]	114%
C=CC(=O)N1CCC(CC(C)(C)C)C1 (stereo not shown) [2-O19, 1-[3-(2,2-dimethylpropyl)pyrrolidin-1-yl]prop-2-en-1-one]	147%
C=CC(=O)NCC1(c2ccccc2)CC1(F)F (stereo not shown) [2-O20, N-[(2,2-difluoro-1-phenylcyclopropyl)methyl]prop-2-enamide]	113%
